Results from ChEMBL document CHEMBL1139109, “Further studies on the binding of N1-substituted tryptamines at h5-HT6 receptors” (Bioorg Med Chem Lett, 2007).

The compounds below were run against 5-hydroxytryptamine receptor 6 (Homo sapiens, UniProt P50406) (assay: Displacement of [3H] LSD from human 5HT6 receptor expressed in HEK293 cells).
Type: cell-based

Chain of 5-hydroxytryptamine receptor 6 (P50406 whole entry): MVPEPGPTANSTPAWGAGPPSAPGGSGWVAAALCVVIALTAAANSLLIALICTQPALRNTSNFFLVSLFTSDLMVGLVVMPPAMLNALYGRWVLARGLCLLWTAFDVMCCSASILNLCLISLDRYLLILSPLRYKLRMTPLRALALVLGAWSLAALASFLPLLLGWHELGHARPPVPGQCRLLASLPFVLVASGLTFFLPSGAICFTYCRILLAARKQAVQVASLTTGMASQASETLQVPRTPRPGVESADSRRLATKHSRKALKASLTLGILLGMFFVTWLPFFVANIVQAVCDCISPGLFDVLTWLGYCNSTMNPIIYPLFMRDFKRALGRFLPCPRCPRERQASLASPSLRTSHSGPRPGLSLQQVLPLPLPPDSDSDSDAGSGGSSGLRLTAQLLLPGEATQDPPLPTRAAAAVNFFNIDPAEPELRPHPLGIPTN

Row | Compound | Ki [nM]
1 | CN(C)CCc1cn(Cc2ccc(C(F)(F)F)cc2)c2ccccc12 | 445
2 | CN(C)CCc1cn(S(=O)(=O)c2ccc(Cl)cc2)c2ccccc12 | 94
3 | CC(C)S(=O)(=O)n1cc(CCN(C)C)c2ccccc21 | 590
4 | Nc1ccc(Cn2c3c(c4ccccc42)CCCC3)cc1 | 6000
5 | CCCCCS(=O)(=O)n1cc(CCN(C)C)c2ccccc21 | 220
6 | Nc1ccc(Cn2ccc3ccccc32)cc1 | 8200
7 | CN(C)CC1CCCc2c1c1ccccc1n2Cc1ccccc1 (stereo not given) | 136
8 | Cc1ccc(Cn2cc(CCN(C)C)c3ccccc32)cc1 | 29
9 | CN(C)CCc1cn(S(=O)(=O)C2CCCCC2)c2ccccc12 | 210
10 | CCCCCCCCS(=O)(=O)n1cc(CCN(C)C)c2ccccc21 | 440
11 | CCCCS(=O)(=O)n1cc(CCN(C)C)c2ccccc21 | 135
12 | CCCS(=O)(=O)n1cc(CCN(C)C)c2ccccc21 | 280
13 | COc1ccc(S(=O)(=O)n2cc(CCN(C)C)c3ccccc32)cc1 | 13
14 | COc1ccc(Cn2cc(CCN(C)C)c3ccccc32)cc1 | 132
15 | CN(C)CC1CCCc2c1c1ccccc1n2S(=O)(=O)c1ccccc1 (stereo not given) | 1.5
16 | CN(C)CCc1cn(S(=O)(=O)c2ccc(C(F)(F)F)cc2)c2ccccc12 | 1.9
17 | Nc1ccc(S(=O)(=O)n2c3c(c4ccccc42)CCCC3)cc1 | 29
18 | CN(C)CCc1cn(Cc2ccc(N)cc2)c2ccccc12 | 44
19 | CN(C)CCc1cn(Cc2ccc(Cl)cc2)c2ccccc12 | 20
20 | Cc1ccc(S(=O)(=O)n2cc(CCN(C)C)c3ccccc32)cc1 | 2.5
